Tests used:
mice [1] = assay: Acetic acid-induced writhing test; format: in vivo, CD-1 mice; conditions: 20 mg/kg i.v. tail vein
Procedure: (§1) Food and water were provided ad libitum.
The acetic acid-induced writhing test was performed as described previously. In brief, after pretreatment with the test compound at a dose of 20 mg/kg via intravenous tail vein injection, 1% (v/v) glacial acetic acid was administered intraperitoneally (i.p.) at a dose of 10 mL/kg. Subsequently, the number of writhing responses over a 20 min period was recorded. The antinociception rate was calculated as the percentage of maximal possible effect (%MPE), where %MPE = 100 × (NWV − NWT)/NWV. NWV and NWT represent the average number of writhing responses of the vehicle and test groups, respectively.

mice [2] = assay: Physical dependence (naloxone-precipitated withdrawal jumping); conditions: i.v. once daily for 5 days, PZM21 and 6a 20 mg/kg, morphine 2 mg/kg, jumps over 20 min
Procedure: (§2) The mice were group-housed in a controlled temperature environment and subjected to a 12 h light/dark cycle (lights on from 07:00 to 19:00). Food and water were provided ad libitum. All animal procedures were conducted in accordance with the policies and recommendations of the International Association for the Study of Pain and the National Health and Animal Welfare Committee of the Beijing Institute of Pharmacology, with the aim of minimizing the number of animals used and their suffering.

mice [3] = assay: Hot-water tail withdrawal test; format: in vivo, CD-1 mice; conditions: 20 mg/kg i.v. tail vein, 15 min post administration
Procedure: as §1
The hot-water tail withdrawal test was performed as described previously. In brief, the hot-water tail withdrawal test was conducted using a water bath maintained at 55 ± 0.5 °C. The distal 3 cm section of the mouse’s tail was immersed perpendicularly into the hot water. The duration for which the tail remained in the water was recorded as the initial tail withdrawal latency (TWL0). […] Following the administration of a single dose of the test compound (20 mg/kg, i.v.) or vehicle, the subsequent tail withdrawal latency (TWL) was measured at various time intervals (15, 30, 45, 60, and 90 min). To prevent potential tissue damage, a maximum cutoff latency of 16 s was enforced. Antinociception was quantified using the percentage of maximal possible effect (%MPE), calculated as %MPE = 100 × (TWL − TWL0)/(16 − TWL0).

human μ-opioid receptor = target: T1, human μ-opioid receptor (Homo sapiens, UniProt P35372); assay: cell-based; format: cell-based; conditions: CHO/μOR cells; for Emax: at the concentration printed in parentheses in the cell, read-out: Max Effect ± SEM (%), µOR-Gi/o activation assay
T1 construct: expressed in transfected cells; host or cells: CHO (CHO/μOR cells)
Procedure: The inhibition assay was performed as described previously. In brief, tested compound dilutions (with final concentrations of 100 µM, 50 µM, 10 µM, 1 µM, 500 nM, 100 nM, 50 nM, 10 nM, 1 nM, and 100 pM) were produced in saline or DMSO in triplicate. CHO/μOR cells were suspended in the assay buffer and counted, maintaining a cell density of 2000 cells per well, with 5 µL from each well seeded into a 384-well plate. Subsequently, 5 µL of the tested compound solution per well was dispensed into the plate, which was then placed in a 25 °C incubator and incubated in the dark for 30 min. Next, 10 µL of cAMP standard working solution was added to the empty wells of the plate, followed by the addition of 5 µL of Eu-cAMP and Anti-cAMP per well. The plate was subsequently placed back in a 25 °C incubator and further incubated in the dark for 1 h.
CHO cells expressing the human μ-opioid receptor were cultivated for the assessment of compound effects. […] Cells collected during the exponential phase of growth were dissociated without enzymes to preserve receptor integrity, resuspended in assay buffer, and counted to achieve a uniform concentration. Cell density was adjusted to 2000 cells per well in a 384-well plate, promoting uniform distribution and optimal receptor presence. Post-seeding at 25 °C in darkness facilitated cell adherence and stabilization prior to compound introduction. Compounds were added in serial dilutions, with meticulous dispensing techniques ensuring dose uniformity. Following a 1 h incubation at 25 °C, TR-FRET reagents were applied to measure cAMP levels, indicative of μOR activity. The Envision system recorded these levels, quantifying compound inhibitory effects. Meticulous aseptic techniques and vigilant monitoring were imperative throughout to guarantee data precision from the assay.

mice [4] = assay: Formalin paw-licking test; format: in vivo, CD-1 mice; conditions: 20 mg/kg i.v. tail vein, Phase II
Procedure: as §1
The formalin injection assay was performed as described previously. […] After 15 min, 30 µL of a 2.7% formalin solution was administered into the right hind paw of each mouse. Then, the mice were put into the cage and their behaviors were observed. The antinociception rate was quantified as the percentage of maximal possible effect (%MPE), calculated as %MPE = 100 × (PLTV − PLTT)/PLTV; PLTV and PLTT represent the average paw-licking duration during Phase II for the vehicle and test groups, respectively.

[5] = target: T2, human μOR β-arrestin2 pathway (Homo sapiens, UniProt P35372); assay: cell-based; format: cell-based; conditions: U2OS/human μOR β-arrestin cells, n = 3; for Emax: at the concentration printed in parentheses in the cell, read-out: Max Effect ± SEM (%), µOR β-arrestin recruitment assay
T2 construct: β-galactosidase enzyme fragment (PathHunter complementation tag); host or cells: U2OS (U2OS/human μOR β-arrestin cells)
Procedure: In this assay, optical signal values were detected employing the PathHunter® (DiscoverX, Shanghai, China) Detection Kit assay method. The agonistic activity of tested compounds on the human μOR β-arrestin2 pathway was quantified using a β-galactosidase-based enzyme fragment complementation assay. In brief, tested compound dilutions (with final concentrations of 100 μM, 50 μM, 10 μM, 1 μM, 500 nM, 100 nM, 50 nM, 10 nM, 1 nM, and 100 pM) were produced in saline or DMSO in triplicate. Next, 100 nL of the tested compound solution per well was dispensed into a 384-well cell culture plate. The U2OS/human μOR β-arrestin cells were resuspended in Opti-MEM and counted to achieve a cell density of 4000 cells per well, and 20 μL from each well was seeded into the 384-well cell culture plate. The plate was subsequently incubated at 37 °C in the dark for 120 min. Post-incubation, the cell plate was equilibrated to room temperature for 10–20 min, and 5 μL of the detection reagent were added to each well. Following a 60 min incubation at 25 °C, chemiluminescent readings were obtained using the envision system.
The cells were maintained at 37 °C with 5% CO2 in McCoy’s 5a medium with supplements and cultivated utilizing precise techniques to ensure accurate, reproducible results. Cells were gently dissociated for assays to maintain receptor integrity and resuspended in Opti-MEM® for compatibility with the PathHunter® (DiscoverX, Shanghai, China). Detection Kit. Cell density was adjusted to 4000 cells per well in a 384-well plate, to ensure that a uniform monolayer was established for the β-galactosidase assay. After seeding and incubation in the dark at 37 °C to facilitate cell attachment, the plates were equilibrated to room temperature prior to compound treatment. Serial dilutions of the compounds were assessed for pharmacological effect. A detection reagent was then added to measure β-galactosidase activity as indicative of μ-opioid receptor and β-arrestin2 interaction. Following reagent incubation, chemiluminescence was quantified, providing quantitative data on compound agonistic activity. Throughout, meticulous aseptic technique and strict adherence to protocols were imperative to ensure the integrity of the pharmacological data derived from these studies.

mice [6] = assay: Respiratory depression (blood pO2, blood gas analyzer); conditions: single i.v. dose 20 mg/kg (morphine 4 mg/kg), 5-40 min
Procedure: as §2

T1 sequence (P35372 whole entry): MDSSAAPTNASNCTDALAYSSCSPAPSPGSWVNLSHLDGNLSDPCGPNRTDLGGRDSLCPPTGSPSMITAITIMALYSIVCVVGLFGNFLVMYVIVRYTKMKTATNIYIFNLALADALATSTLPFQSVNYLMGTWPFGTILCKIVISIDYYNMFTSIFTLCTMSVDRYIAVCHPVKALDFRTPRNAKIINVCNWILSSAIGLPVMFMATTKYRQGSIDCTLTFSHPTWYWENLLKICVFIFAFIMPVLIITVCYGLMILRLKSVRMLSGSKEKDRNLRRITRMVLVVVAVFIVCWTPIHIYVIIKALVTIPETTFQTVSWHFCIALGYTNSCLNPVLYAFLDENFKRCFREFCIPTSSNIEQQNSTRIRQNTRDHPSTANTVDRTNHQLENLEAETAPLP
T2 sequence (P35372 whole entry, the tested form may be a part): as the sequence (P35372 whole entry) above

Row | SMILES | analgesia rate (%MPE), acetic acid-induced writhing (mice [1]) | physical dependence: jumping after naloxone-precipitated withdrawal vs vehicle (mice [2]) | pain inhibition rate (%MPE), hot-water tail-withdrawal test (mice [3]) [%] | EC50 (human μ-opioid receptor; cAMP inhibition, n = 3, "-" = no measurable activity, read-out: EC50 (nM) (95% CI), µOR-Gi/o activation assay) | Emax (human μ-opioid receptor; n = 3) [%] | antinociceptive efficacy (%MPE), formalin-induced paw licking, second phase (mice [4]) [%] | Emax [5] [%] | EC50 ([5]; "-" = no measurable activity, read-out: EC50 (nM) (95% CI), µOR β-arrestin recruitment assay) | respiratory depression: partial pressure of oxygen in blood vs vehicle (mice [6]) | µOR agonist efficacy in Gi/o-protein signaling assay (in words) (human μ-opioid receptor)
1 | CN(C)[C@H](CNC(=O)NCc1ccccc1)Cc1cccc2ccccc12 [6a, (S)-1-benzyl-3-(2-(dimethylamino)-3-(naphthalen-1-yl)propyl) urea] | exceeding 97% | does not induce physical dependence or withdrawal symptoms | 50.19 | 10.8 | 51.9 ± 1.06 | 73.80 | 0.38 ± 0.21 | > 100000 | does not induce acute respiratory depression | –
2 | C[C@@H](Cc1ccsc1)NC(=O)NC[C@H](Cc1ccc(O)cc1)N(C)C [PZM21, reference compound] | – | neither 6a nor PZM21 elicited a significant increase in withdrawal behaviors | 69.23 | – | 89.8 ± 2.93 | 72.72 | 3.09 ± 0.42 | – | neither the 6a group nor the PZM21 group demonstrated any reduction in respiratory measures | significant µOR agonist efficacy

Source: paper PMC11243066, “Synthesis and Biological Evaluation of Novel Biased Mu-Opioid Receptor Agonists” (Molecules, 2024)
